Tests used:
Assay type in all cases: functional
Acanthocheilonema viteae [1] = test: In vitro inhibition of Tubulin content in worms at concentration 1.0 uM
Mastomys natalensis [2] = test: Compound was evaluated in vivo for microfilaricidal activity against Acanthocheilonema viteae infection in Mastomys natalensis at dose 50 mg/kg *5days (i.p.); conditions: route intraperitoneal
Acanthocheilonema viteae [3] = test: Antifilarial activity was measured by percent sterilization of A. viteae at dose 50 mg/kg *5days (i.p.); 0 represents inactive; conditions: route intraperitoneal
Acanthocheilonema viteae [4] = test: In vitro inhibition of ATP content in worms at concentration 1.0 uM
Mastomys natalensis [5] = test: Compound was evaluated in vivo for microfilaricidal activity against Acanthocheilonema viteae infection in Mastomys natalensis; 0 represents inactive
Acanthocheilonema viteae [6] = test: In vitro inhibition of glucose uptake by Acanthocheilonema viteae at concentration 1.0 uM
Acanthocheilonema viteae [7] = test: In vitro increase in lactate production at concentration 1.0 uM
Acanthocheilonema viteae [8] = test: Antifilarial activity was measured by percent sterilization of A. viteae at dose 50 mg/kg *5days (i.p.); conditions: route intraperitoneal
Mastomys natalensis [9] = test: Compound was evaluated in vivo for microfilaricidal activity against Acanthocheilonema viteae infection in Mastomys natalensis at dose 50 mg/kg/5days (i.p.); 0 represents inactive; conditions: route intraperitoneal
Mastomys natalensis [10] = test: Compound was evaluated in vivo for microfilaricidal activity against Acanthocheilonema viteae infection in Mastomys natalensis at dose 50 mg/kg/5days (i.p.); conditions: route intraperitoneal
Mastomys natalensis [11] = test: Compound was evaluated in vivo for microfilaricidal activity against Acanthocheilonema viteae infection in Mastomys natalensis
Acanthocheilonema viteae [12] = test: Antifilarial activity was measured by percent sterilization of A. viteae at dose 50 mg/kg/5days (i.p.); 0 represents inactive; conditions: route intraperitoneal
Mastomys natalensis [13] = test: Compound was evaluated in vivo for microfilaricidal activity against Acanthocheilonema viteae infection in Mastomys natalensis at dose 350 mg/kg/5 days (i.p.); conditions: route intraperitoneal

Row | Structure (SMILES) | Tubulin content (Acanthocheilonema viteae [1]) [pmol/mg] | Activity (Mastomys natalensis [2]) | Sterility (Acanthocheilonema viteae [3]) [%] | ATP content (Acanthocheilonema viteae [4]) [pmol/mg] | Activity (Mastomys natalensis [5]) | Glucose uptake (Acanthocheilonema viteae [6]) [µM/mg] | Lactate production (Acanthocheilonema viteae [7]) [µM/mg] | Sterility (Acanthocheilonema viteae [8]) [%] | Activity (Mastomys natalensis [9]) | Activity (Mastomys natalensis [10]) | Activity (Mastomys natalensis [11]) | Sterility (Acanthocheilonema viteae [12]) [%] | Activity (Mastomys natalensis [13])
1 | O=[N+]([O-])c1ccc(N2CCOCC2)c2ccncc12 | 38.5 | 81 | 0 | 39.1 | 0 | 6.15 | 7.19 | – | – | – | – | – | –
2 | OC1CC1Nc1cccc2cnccc12 (stereo unspecified) | 70.2 | – | – | 108 | 0 | 6.67 | 7.42 | 31 | 0 | – | – | – | –
3 | O=C1CN(c2cccc3cnccc23)C2CC2O1 (stereo unspecified) | 35.4 | – | 0 | 74.2 | – | 6.09 | 6.42 | – | – | 34 | 0 | – | –
4 | Clc1ccc2c(Nc3ccc(N4CCOCC4)c4ccncc34)ccnc2c1 | 45.1 | – | – | 37.9 | – | 6.26 | 7.3 | – | – | 76 | 60 | 0 | –
5 | CCN(CC)C(=O)N1CCN(C)CC1.O=C(O)CC(O)(CC(=O)O)C(=O)O [DIETHYLCARBAMAZINE CITRATE] | – | – | – | – | – | – | – | – | 0 | – | – | 0 | 90

— ChEMBL document CHEMBL1150532, “Syntheses and antifilarial profile of 5-amino and 5,8-diamino-isoquinoline derivatives: A new class of antifilarial agents” (1996)
